Data on 3 molecules can be found in ChEMBL document CHEMBL4052688, “Design, synthesis and biological evaluation of novel 3H-imidazole [4,5-b] pyridine derivatives as selective mTOR inhibitors” (Bioorg Med Chem Lett, 2017).

In assay [1] the target is Phosphatidylinositol 4,5-bisphosphate 3-kinase catalytic subunit alpha isoform (Homo sapiens, UniProt P42336). Description: Inhibition of PI3Kalpha (unknown origin) using lipid substrate by Kinase-Glo plus luminescence kinase assay or and ADP-Glo Plus luminescence kinase assay.
Sequence of Phosphatidylinositol 4,5-bisphosphate 3-kinase catalytic subunit alpha isoform (P42336 whole entry, canonical isoform): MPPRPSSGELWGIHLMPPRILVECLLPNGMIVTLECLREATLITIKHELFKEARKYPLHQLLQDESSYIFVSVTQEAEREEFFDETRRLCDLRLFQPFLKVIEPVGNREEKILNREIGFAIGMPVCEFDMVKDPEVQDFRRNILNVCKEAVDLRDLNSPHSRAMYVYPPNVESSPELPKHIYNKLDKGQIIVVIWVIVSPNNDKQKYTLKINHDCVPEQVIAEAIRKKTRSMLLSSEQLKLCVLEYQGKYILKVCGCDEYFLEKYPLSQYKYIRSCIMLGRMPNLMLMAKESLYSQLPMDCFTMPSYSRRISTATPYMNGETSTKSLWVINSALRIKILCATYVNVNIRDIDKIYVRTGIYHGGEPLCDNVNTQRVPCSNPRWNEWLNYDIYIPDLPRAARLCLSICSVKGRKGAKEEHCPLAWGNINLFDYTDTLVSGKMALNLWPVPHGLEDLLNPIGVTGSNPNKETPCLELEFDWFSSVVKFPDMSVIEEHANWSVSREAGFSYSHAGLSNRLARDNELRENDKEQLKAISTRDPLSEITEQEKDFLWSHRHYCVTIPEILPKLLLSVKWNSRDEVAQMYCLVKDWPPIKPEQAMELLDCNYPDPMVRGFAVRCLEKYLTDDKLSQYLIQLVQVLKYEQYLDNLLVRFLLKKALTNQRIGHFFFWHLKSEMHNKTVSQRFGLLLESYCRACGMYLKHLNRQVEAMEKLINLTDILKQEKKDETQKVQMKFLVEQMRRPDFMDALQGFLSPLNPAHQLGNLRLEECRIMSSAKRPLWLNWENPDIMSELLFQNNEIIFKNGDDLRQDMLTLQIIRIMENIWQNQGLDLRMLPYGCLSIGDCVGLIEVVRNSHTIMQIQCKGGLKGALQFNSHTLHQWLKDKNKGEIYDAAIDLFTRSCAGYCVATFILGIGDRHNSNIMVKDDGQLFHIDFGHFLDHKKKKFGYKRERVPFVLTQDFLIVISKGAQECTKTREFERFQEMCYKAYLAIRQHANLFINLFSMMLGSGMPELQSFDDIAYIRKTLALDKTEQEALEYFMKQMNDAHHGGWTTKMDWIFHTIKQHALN
Assay [2] addresses Serine/threonine-protein kinase mTOR (Homo sapiens, UniProt P42345). Description: Inhibition of mTOR (unknown origin) by Kinase-Glo plus luminescence kinase assay or and ADP-Glo Plus luminescence kinase assay.
The subject of another assay is MCF7. Description: cells. Particulars: Homo sapiens, MCF7, 72 h.
In the next assay the test system is A2780. Description: cells. Particulars: Homo sapiens, A2780, 72 h.

Description for A2780: Antiproliferative activity against human A2780 cells incubated for 72 hrs by MTT assay
Description for MCF7: Antiproliferative activity against human MCF7 cells incubated for 72 hrs by MTT assay

On to `CCNC(=O)Nc1ccc(-c2nc3c(c(N4CCOC[C@@H]4C)n2)CCN(C2COC2)C3)cc1` [RG-7603], for which the IC50 (as a rule, the midpoint of a concentration-inhibition curve) in assay [1] was 4200 nM; in assay [2] it was 39 nM; in the assay on MCF7 it was 5.8 nM; in the assay on A2780, 330 nM.
In the same order, the values of `CCNC(=O)Nc1ccc(-c2cc(N3CCOC[C@@H]3C)c3nc(C)n(CC)c3n2)cc1` are > 10000 nM, 330 to 332 nM, 18 nM and 2710 nM.
In the same order, the values of `CCCn1cnc2c(N3CCOC[C@@H]3C)cc(-c3ccc(NC(=O)NCC)cc3)nc21` are > 10000 nM, 290 nM, 64 nM and 3110 nM.
